In patent US20200024278A1, “COMPOSITION COMPRISING ANTIBIOTIC COMPOUND AND AN HETEROCYCLIC COMPOUND AND THEIR USE IN PREVENTING OR TREATING BACTERIAL INFECTIONS” (MUTABILIS, priority 2016, published 2020):

Key:
Assay in all cases: MIC, broth microdilution (CLSI), substance alone or ATB combined with compound at 4 or 8 μg/mL
[1] = tested on: ECL P99; type: cell-based, E. cloacae; conditions: ECL P99
Experimental: (§1) Compounds of the present invention were assessed against genotyped bacterial strains alone or in combination with an antibacterial. In the assays, MICs of said compounds or combination of antibiotics with fixed concentrations of said compounds (4 or 8 μg/mL) were determined by the broth microdilution method according to the Clinical Laboratory Standards Institute (CLSI-M7-A7). Briefly, compounds alone according to the invention were prepared in DMSO and spotted (2 μL each) on sterile polystyrene plates (Corning, 3788). Combinations of compounds and antibiotics dilutions were prepared in DMSO and spotted (1 μL each) on sterile polystyrene plates (Corning, 3788). Log phase bacterial suspensions were adjusted to a final density of 5·10^5 CFU/mL in cation-adjusted Mueller-Hinton broth (ca-MHB; Becton-Dickinson and Company) and added to each well (98 μL). Assays including Fosfomycin were supplemented with 25 μg/ml of Glucose-6-phosphate. Microplates were incubated for 16-20 h at 35° C. in ambient air. The MIC of the compounds was defined as the lowest concentration of said compounds that prevented bacterial growth as read by visual inspection. The MIC of ATB at each compound concentration was defined as the lowest concentration of ATB that prevented bacterial growth as read by visual inspection.

[2] = tested on: ECO 190317; type: cell-based, E. coli; conditions: ECO 190317
Experimental: as §1

[3] = tested on: ECO UFR39; type: cell-based, E. coli; conditions: ECO UFR39; with Example 13 at 8 μg/ml
Experimental: as §1

[4] = tested on: SPN 49619; type: cell-based, S. pneumoniae; conditions: SPN 49619
Experimental: as §1

[5] = tested on: SAU 29213; type: cell-based, S. aureus; conditions: SAU 29213
Experimental: as §1

[6] = tested on: PAE 105250; type: cell-based, P. aeruginosa; conditions: PAE 105250
Experimental: as §1

[7] = tested on: PAE UFR48; type: cell-based, P. aeruginosa; conditions: PAE UFR48
Experimental: as §1

[8] = tested on: PAE UFR90; type: cell-based, P. aeruginosa; conditions: PAE UFR90
Experimental: as §1

## CO/N=C(\C(=O)N[C@@H]1C(=O)N2C(C(=O)O)=C(COC(C)=O)CS[C@H]12)c1csc(N)n1 [CTX]
[1]; with Example 1 @8 μg/ml
  MIC ATB combined with Example 1 @8 μg/ml: <0.031 µg/mL
[1]; with Example 1 at 8 μg/ml
  MIC ATB combined with Example 1 @8 μg/ml: <0.031 µg/mL
[1]; with Example 7 at 8 μg/ml
  MIC ATB combined with Example 7 @8 μgml: 0.063 µg/mL
[1]; with Example 13 at 8 μg/ml
  MIC ATB combined with Example 13 @8 μg/ml: 1 µg/mL
[1]; with Example 15 at 4 μg/ml
  MIC ATB combined with Example 15 @4 μgml: <=0.031 μg/mL
[2]; with Example 1 @8 μg/ml
  MIC ATB combined with Example 1 @8 μg/ml: <0.031 µg/mL
[2]; with Example 1 at 8 μg/ml
  MIC ATB combined with Example 1 @8 μg/ml: <0.031 µg/mL
[2]; with Example 13 at 8 μg/ml
  MIC ATB combined with Example 13 @8 μg/ml: <0.031 µg/mL
[3]
  MIC ATB combined with Example 13 @8 μg/ml: <0.031 µg/mL
[4]; antibiotic alone
  MIC ATB alone: 0.063 µg/mL
[4]; with Example 1 @8 μg/ml
  MIC ATB combined with Example 1 @8 μg/ml: <=0.031 μg/mL
[4]; with Example 1 at 8 μg/ml
  MIC ATB combined with Example 1 @8 μg/ml: <=0.031 μg/mL
[4]; with Example 7 at 8 μg/ml
  MIC ATB combined with Example 7 @8 μgml: <=0.031 μg/mL
[4]; with Example 9 @4 μg/ml
  MIC ATB combined with Example 9 @4 μg/ml: <=0.031 μg/mL
[4]; with Example 9 at 4 μg/ml
  MIC ATB combined with Example 9 @4 μg/ml: <=0.031 μg/mL
[4]; with Example 11 at 8 μg/ml
  MIC ATB combined with Example 11 @8 μg/ml: <=0.031 μg/mL
[4]; with Example 12 at 8 μg/ml
  MIC ATB combined with Example 12 @8 μg/ml: <=0.031 μg/mL
[4]; with Example 13 at 8 μg/ml
  MIC ATB combined with Example 13 @8 μg/ml: <=0.031 μg/mL
[4]; with Example 14 at 8 μg/ml
  MIC ATB combined with Example 14 @8 μg/ml: <=0.031 μg/mL
[4]; with Example 15 at 4 μg/ml
  MIC ATB combined with Example 15 @4 μgml: <=0.031 μg/mL
[4]; with Example 16 at 4 μg/ml
  MIC ATB combined with Example 16 @4 μg/ml: <=0.031 μg/mL
[5]; antibiotic alone
  MIC ATB alone: 2 µg/mL
[5]; with Example 1 @8 μg/ml
  MIC ATB combined with Example 1 @8 μg/ml: 2 µg/mL
[5]; with Example 1 at 8 μg/ml
  MIC ATB combined with Example 1 @8 μg/ml: 2 µg/mL
[5]; with Example 7 at 8 μg/ml
  MIC ATB combined with Example 7 @8 μgml: 1 µg/mL
[5]; with Example 11 at 8 μg/ml
  MIC ATB combined with Example 11 @8 μg/ml: <=0.031 μg/mL
[5]; with Example 13 at 8 μg/ml
  MIC ATB combined with Example 13 @8 μg/ml: 1 µg/mL
[5]; with Example 15 at 4 μg/ml
  MIC ATB combined with Example 15 @4 μgml: 0.5 µg/mL
[6]; with Example 1 @8 μg/ml
  MIC ATB combined with Example 1 @8 μg/ml: <0.031 µg/mL
[6]; with Example 1 at 8 μg/ml
  MIC ATB combined with Example 1 @8 μg/ml: <0.031 µg/mL
[6]; with Example 7 at 8 μg/ml
  MIC ATB combined with Example 7 @8 μgml: 32 µg/mL
[6]; with Example 11 at 8 μg/ml
  MIC ATB combined with Example 11 @8 μg/ml: 32 µg/mL
[6]; with Example 12 at 8 μg/ml
  MIC ATB combined with Example 12 @8 μg/ml: >32 µg/mL
[6]; with Example 14 at 8 μg/ml
  MIC ATB combined with Example 14 @8 μg/ml: >32 µg/mL
[6]; with Example 15 at 4 μg/ml
  MIC ATB combined with Example 15 @4 μgml: 32 µg/mL
[6]; with Example 16 at 4 μg/ml
  MIC ATB combined with Example 16 @4 μg/ml: >32 µg/mL
[7]; with Example 1 @8 μg/ml
  MIC ATB combined with Example 1 @8 μg/ml: <0.031 µg/mL
[7]; with Example 1 at 8 μg/ml
  MIC ATB combined with Example 1 @8 μg/ml: <0.031 µg/mL
[7]; with Example 7 at 8 μg/ml
  MIC ATB combined with Example 7 @8 μgml: >32 µg/mL
[7]; with Example 11 at 8 μg/ml
  MIC ATB combined with Example 11 @8 μg/ml: >32 µg/mL
[7]; with Example 12 at 8 μg/ml
  MIC ATB combined with Example 12 @8 μg/ml: >32 µg/mL
[7]; with Example 14 at 8 μg/ml
  MIC ATB combined with Example 14 @8 μg/ml: >32 µg/mL
[7]; with Example 15 at 4 μg/ml
  MIC ATB combined with Example 15 @4 μgml: >32 µg/mL
[7]; with Example 16 at 4 μg/ml
  MIC ATB combined with Example 16 @4 μg/ml: >32 µg/mL
[8]; with Example 1 @8 μg/ml
  MIC ATB combined with Example 1 @8 μg/ml: <0.031 µg/mL
[8]; with Example 1 at 8 μg/ml
  MIC ATB combined with Example 1 @8 μg/ml: <0.031 µg/mL
[8]; with Example 7 at 8 μg/ml
  MIC ATB combined with Example 7 @8 μgml: >32 µg/mL
[8]; with Example 11 at 8 μg/ml
  MIC ATB combined with Example 11 @8 μg/ml: >32 µg/mL
[8]; with Example 14 at 8 μg/ml
  MIC ATB combined with Example 14 @8 μg/ml: >32 µg/mL
[8]; with Example 15 at 4 μg/ml
  MIC ATB combined with Example 15 @4 μgml: >32 µg/mL
[8]; with Example 16 at 4 μg/ml
  MIC ATB combined with Example 16 @4 μg/ml: >32 µg/mL
